Data reported in article PMC7914897, “Cytotoxic Potential of a-Azepano- and 3-Amino-3,4-SeCo-Triterpenoids” (International Journal of Molecular Sciences, 2021).

Columns and labels:
Melanoma subpanel = test: NCI-60 screen, subpanel; conditions: Homo sapiens; for IC (TGI): 48 h, read-out: TGI MG_MID; for GI50: read-out: GI50 MG_MID; for CC50: read-out: LC50 MG_MID
[1] = system: FaDu (hypopharyngeal carcinoma); test: SRB cytotoxicity assay, 72 h; format: cell-based, human; conditions: Homo sapiens, cut-off 30 µM, read-out: EC50
How it was run: (§1)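 Absorbance at 570 nm of SRB-stained cells gives % survival vs untreated controls, from which EC50 is determined. Treatment: 0–30 µM serial dilutions, 72 h, beginning 24 h post-seeding; DMSO ≤0.5%. TCA (10%) fixation, acetic acid wash.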

MCF-7 (breast carcinoma) = test: SRB cytotoxicity assay, 72 h; format: cell-based, human; conditions: Homo sapiens, MCF7; MCF-7, 72 h, cut-off 30 µM; read-out: EC50
How it was run: as §1

[2] = system: A375 (malignant melanoma); test: SRB cytotoxicity assay, 72 h; format: cell-based, human; conditions: Homo sapiens, A-375, 72 h, A375, 72 h, cut-off 30 µM; read-out: EC50
How it was run: as §1

[3] = system: HT29 (colorectal carcinoma); test: SRB cytotoxicity assay, 72 h; format: cell-based, human; conditions: Homo sapiens, HT-29; HT29, 72 h, cut-off 30 µM; read-out: EC50
How it was run: as §1

[4] = system: A2780 (ovarian carcinoma); test: SRB cytotoxicity assay, 72 h; format: cell-based, human; conditions: Homo sapiens; A2780, 72 h, cut-off 30 µM; read-out: EC50
How it was run: as §1

RPMI-8226 (Leukemia) = test: NCI-60 screen (SRB, 48 h); conditions: Homo sapiens; for GI50: RPMI-8226; for IC (TGI): RPMI-8226, 48 h, read-out: TGI
HCC-2998 (Colon cancer) = test: NCI-60 screen (SRB, 48 h); conditions: Homo sapiens; for GI50: HCC 2998; for IC (TGI): HCC 2998, 48 h, read-out: TGI
SF-268 (CNS cancer) = test: NCI-60 screen (SRB, 48 h); conditions: Homo sapiens; for GI50: SF-268; for IC (TGI): SF-268, 48 h, read-out: TGI; for CC50: SF-268, read-out: LC50
[5] = system: NCI-H23 (NSC lung cancer); test: NCI-60 screen (SRB, 48 h); conditions: Homo sapiens; for GI50: NCI-H23; for IC (TGI): NCI-H23, 48 h, read-out: TGI
BT-549 (Breast cancer) = test: NCI-60 screen (SRB, 48 h); format: cell-based; conditions: Homo sapiens; for GI50: BT-549; for IC (TGI): BT-549, 48 h
NSC lung cancer subpanel = test: NCI-60 screen, subpanel; conditions: Homo sapiens; for IC (TGI): 48 h, read-out: TGI MG_MID; for GI50: read-out: GI50 MG_MID; for CC50: read-out: LC50 MG_MID
SR (Leukemia) = test: NCI-60 screen (SRB, 48 h); format: cell-based; conditions: Homo sapiens; for CC50: read-out: LC50 (the source's name)
786-0 (Renal cancer) = test: NCI-60 screen (SRB, 48 h); conditions: for GI50 / IC (TGI): Homo sapiens; for GI50: 786-0; for IC (TGI): 786-0, 48 h, read-out: TGI
OVCAR-4 (Ovarian cancer) = test: NCI-60 screen (SRB, 48 h); format: cell-based; conditions: Homo sapiens; for IC (TGI): OVCAR-4, 48 h; for GI50: read-out: GI50
MDA-MB-435 (Melanoma) = test: NCI-60 screen (SRB, 48 h); format: cell-based; conditions: Homo sapiens; for IC (TGI): MDA-MB-435, 48 h, read-out: TGI
OVCAR-8 (Ovarian cancer) = test: NCI-60 screen (SRB, 48 h); conditions: Homo sapiens; for GI50: OVCAR-8
[6] = system: MDA-MB-468 (Breast cancer); test: cells; conditions: Homo sapiens; for GI50: MDA-MB-468; for IC (TGI): MDA-MB-468, 48 h, read-out: TGI
SF-539 (CNS cancer) = test: NCI-60 screen (SRB, 48 h); conditions: Homo sapiens; for GI50: SF-539; for IC (TGI): SF-539, 48 h, read-out: TGI; for CC50: SF-539, read-out: LC50
SK-MEL-5 (Melanoma) = test: NCI-60 screen (SRB, 48 h); conditions: Homo sapiens; for GI50: SK-MEL-5; for IC (TGI): SK-MEL-5, 48 h, read-out: TGI
ACHN (Renal cancer) = test: NCI-60 screen (SRB, 48 h); conditions: Homo sapiens; for IC (TGI): 48 h, read-out: TGI; for CC50: read-out: LC50
[7] = system: NCI-H460 (NSC lung cancer); test: NCI-60 screen (SRB, 48 h); conditions: Homo sapiens; for GI50: NCI-H460; for IC (TGI): NCI-H460, 48 h, read-out: TGI
[8] = system: NCI-H522 (NSC lung cancer); test: NCI-60 screen (SRB, 48 h); conditions: Homo sapiens; for GI50: NCI-H522; for IC (TGI): NCI-H522, 48 h, read-out: TGI; for CC50: NCI-H522, read-out: LC50
UACC-257 (Melanoma) = test: NCI-60 screen (SRB, 48 h); conditions: Homo sapiens; for GI50: UACC-257; for IC (TGI): UACC-257, 48 h, read-out: TGI
Breast cancer subpanel = test: NCI-60 screen, subpanel; conditions: Homo sapiens; for IC (TGI): 48 h, read-out: TGI MG_MID; for GI50: read-out: GI50 MG_MID; for CC50: read-out: LC50 MG_MID

Cc1ccc(S(=O)(=O)OC[C@]23CCC(C)(C)C[C@H]2C2=CC[C@@H]4[C@@]5(C)CCCNC(C)(C)[C@@H]5CC[C@@]4(C)[C@]2(C)CC3)cc1 [Compound 15]
IC (TGI) (Melanoma subpanel): 3.53 µM | GI50 (Melanoma subpanel): 1.81 µM | CC50 (Melanoma subpanel): 16.4 µM | EC50 [1]: 2.02 ± 0.2 µM | EC50 (MCF-7 (breast carcinoma)): 2.4 ± 0.1 µM | EC50 [2]: 2.36 ± 0.1 µM | EC50 [3]: 2.33 ± 0.2 µM | EC50 [4]: 1.48 ± 0.2 µM | GI50 (RPMI-8226 (Leukemia)): 2.03 µM | IC (TGI) (RPMI-8226 (Leukemia)): 4.42 µM | GI50 (HCC-2998 (Colon cancer)): 1.63 µM | IC (TGI) (HCC-2998 (Colon cancer)): 3.21 µM | GI50 (SF-268 (CNS cancer)): 2.32 µM | IC (TGI) (SF-268 (CNS cancer)): 8.44 µM | CC50 (SF-268 (CNS cancer)): 67.9 µM | GI50 [5]: 1.7 µM | IC (TGI) [5]: 3.27 µM | GI50 (BT-549 (Breast cancer)): 1.9 µM | IC (TGI) (BT-549 (Breast cancer)): 3.78 µM | IC (TGI) (NSC lung cancer subpanel): 3.42 µM | GI50 (NSC lung cancer subpanel): 3.14 µM | CC50 (NSC lung cancer subpanel): 53.4 µM | GI50 (SR (Leukemia)): 0.34 µM | CC50 (SR (Leukemia)): > 100 µM | GI50 (786-0 (Renal cancer)): 1.85 µM | IC (TGI) (786-0 (Renal cancer)): 4.14 µM | IC (TGI) (OVCAR-4 (Ovarian cancer)): 3.32 µM | GI50 (OVCAR-4 (Ovarian cancer); OVCAR-4): 1.69 µM | GI50 (MDA-MB-435 (Melanoma); MDA-MB-435): 1.61 µM | IC (TGI) (MDA-MB-435 (Melanoma)): 2.97 µM | GI50 (OVCAR-8 (Ovarian cancer)): 1.99 µM | GI50 [6]: 1.56 µM | IC (TGI) [6]: 3.13 µM | GI50 (SF-539 (CNS cancer)): 1.71 µM | IC (TGI) (SF-539 (CNS cancer)): 3.15 µM | CC50 (SF-539 (CNS cancer)): 5.79 µM | GI50 (SK-MEL-5 (Melanoma)): 1.9 µM | IC (TGI) (SK-MEL-5 (Melanoma)): 3.68 µM | GI50 (ACHN (Renal cancer)): 1.68 µM | IC (TGI) (ACHN (Renal cancer)): 3.07 µM | CC50 (ACHN (Renal cancer)): 5.58 µM | GI50 [7]: 1.77 µM | IC (TGI) [7]: 3.37 µM | GI50 [8]: 1.69 µM | IC (TGI) [8]: 3.38 µM | CC50 [8]: 6.78 µM | GI50 (UACC-257 (Melanoma)): 1.85 µM | IC (TGI) (UACC-257 (Melanoma)): 3.54 µM | IC (TGI) (Breast cancer subpanel): 3.63 µM | GI50 (Breast cancer subpanel): 1.75 µM | CC50 (Breast cancer subpanel): 9.14 µM

Cc1ccc(S(=O)(=O)OC[C@@]2(C)CC[C@]3(C)CC[C@]4(C)C(=C3C2)C=C[C@@H]2[C@@]3(C)CCCNC(C)(C)[C@@H]3CC[C@]24C)cc1 [Compound 16]
IC (TGI) (Melanoma subpanel): 3.36 µM | GI50 (Melanoma subpanel): 1.77 µM | CC50 (Melanoma subpanel): 6.16 µM | EC50 [1]: 1.52 ± 0.1 µM | EC50 (MCF-7 (breast carcinoma)): 1.54 ± 0.1 µM | EC50 [2]: 1.91 ± 0.1 µM | EC50 [3]: 1.54 ± 0.1 µM | EC50 [4]: 2.38 ± 0.1 µM | GI50 (RPMI-8226 (Leukemia)): 2.12 µM | IC (TGI) (RPMI-8226 (Leukemia)): 4.63 µM | CC50 (RPMI-8226 (Leukemia); RPMI-8226, read-out: LC50): > 100 µM | GI50 (HCC-2998 (Colon cancer)): 1.58 µM | IC (TGI) (HCC-2998 (Colon cancer)): 3.18 µM | GI50 (SF-268 (CNS cancer)): 1.95 µM | IC (TGI) (SF-268 (CNS cancer)): 4.12 µM | CC50 (SF-268 (CNS cancer)): 8.68 µM | GI50 [5]: 1.82 µM | IC (TGI) [5]: 3.42 µM | CC50 ([5]; NCI-H23, read-out: LC50): 6.41 µM | GI50 (BT-549 (Breast cancer)): 1.48 µM | IC (TGI) (BT-549 (Breast cancer)): 3.14 µM | IC (TGI) (NSC lung cancer subpanel): 3.36 µM | GI50 (NSC lung cancer subpanel): 1.72 µM | CC50 (NSC lung cancer subpanel): 6.23 µM | GI50 (SR (Leukemia)): 0.31 µM | CC50 (SR (Leukemia)): > 100 µM | Growth % of the Most Sensitive Cell Lines (786-0 (Renal cancer); 786-0, 1 dose 10 µM): −90.69% | GI50 (786-0 (Renal cancer)): 1.84 µM | IC (TGI) (786-0 (Renal cancer)): 3.51 µM | IC (TGI) (OVCAR-4 (Ovarian cancer)): 3.16 µM | GI50 (OVCAR-4 (Ovarian cancer); OVCAR-4): 1.66 µM | CC50 (OVCAR-4 (Ovarian cancer); OVCAR-4, read-out: LC50 (the source's name)): 6.02 µM | GI50 (MDA-MB-435 (Melanoma); MDA-MB-435): 1.64 µM | IC (TGI) (MDA-MB-435 (Melanoma)): 3.07 µM | CC50 (MDA-MB-435 (Melanoma); MDA-MB-435, read-out: LC50 (the source's name)): 5.75 µM | GI50 (OVCAR-8 (Ovarian cancer)): 2.12 µM | IC (TGI) (OVCAR-8 (Ovarian cancer); OVCAR-8, 48 h, read-out: TGI): 4.57 µM | GI50 [6]: 1.59 µM | IC (TGI) [6]: 3.22 µM | CC50 ([6]; MDA-MB-468, read-out: LC50): 6.51 µM | GI50 (SF-539 (CNS cancer)): 1.71 µM | IC (TGI) (SF-539 (CNS cancer)): 3.11 µM | CC50 (SF-539 (CNS cancer)): 5.66 µM | GI50 (SK-MEL-5 (Melanoma)): 1.82 µM | IC (TGI) (SK-MEL-5 (Melanoma)): 3.39 µM | GI50 (ACHN (Renal cancer)): 1.72 µM | IC (TGI) (ACHN (Renal cancer)): 3.1 µM | CC50 (ACHN (Renal cancer)): 5.5 µM | GI50 [7]: 1.85 µM | IC (TGI) [7]: 3.5 µM | GI50 [8]: 1.7 µM | IC (TGI) [8]: 3.36 µM | CC50 [8]: 6.64 µM | GI50 (UACC-257 (Melanoma)): 1.85 µM | IC (TGI) (UACC-257 (Melanoma)): 3.68 µM | IC (TGI) (Breast cancer subpanel): 3.5 µM | GI50 (Breast cancer subpanel): 1.67 µM | CC50 (Breast cancer subpanel): 7.57 µM
